Experimental data: patent publication US20180311342A1, “IMMUNOSTIMULATING AGENT” (AJINOMOTO CO., INC., priority 2017, published 2018)
Counter-ions that a name gives are not always drawn.

Columns and labels:
Type in all cases: in vivo, BALB/c mice
[1] = system: anti-OVA-specific IgG2a subclass antibody; test: Adjuvant activity test: anti-OVA-specific IgG2a subclass antibody in serum of OVA-immunized mice (ELISA); conditions: after primary immunization, serum 2 weeks later; OVA 5 μg + compound 0.256 μmol in 5% αCD-added saline (Addavax mixed with saline at 1:1), dorsal-subcutaneous; compared to OVA single administration group
[2] = system: anti-OVA-specific IgG1 and IgG2a subclass antibody production; test: Evaluation test of adjuvant activity (overall conclusion from anti-OVA IgG1 and IgG2a production); conditions: compound 0.256 μmol in 5% αCD-added saline with OVA 5 μg, dorsal-subcutaneous
How it was run: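 Female BALB/c mice (8 weeks, N=6) immunized dorsal-subcutaneously with OVA 5 μg alone or plus 0.256 μmol compound in 5% α-cyclodextrin saline (Addavax™ as positive control), boosted at 2 weeks. Serum taken 2 weeks after boost; anti-OVA IgG1 and IgG2a quantified by OVA-coated ELISA against standard curves (OD 450 nm).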

[3] = system: anti-OVA-specific IgG1 subclass antibody; test: Adjuvant activity test: anti-OVA-specific IgG1 subclass antibody in serum of OVA-immunized mice (ELISA); conditions: after primary immunization, serum 2 weeks later; OVA 5 μg + compound 0.256 μmol in 5% αCD-added saline (Addavax mixed with saline at 1:1), dorsal-subcutaneous; compared to OVA single administration group
[4] = conclusion from IgG1/IgG2a after primary immunization
[5] = conclusion from IgG1/IgG2a after secondary immunization

Row | Structure (SMILES) | anti-OVA-specific IgG2a subclass antibody production [1] | adjuvant activity [2, 4] | adjuvant activity [2, 5] | anti-OVA-specific IgG1 subclass antibody production [3]
1 | CCCCCCCCCCCCNC(=O)N[C@@H](CCCNC(=N)N)C(=O)NCCCCCCCCCCCC.Cl [SZ212, (2S)—N-dodecyl-2-(dodecylcarbamoylamino)-5-guanidino-pentanamide hydrochloride] | significant enhancement | have an adjuvant activity | have an adjuvant activity | significant enhancement
2 | CCCCCCCCCCCCCCCCCC(=O)N[C@@H](CCCCN)C(=O)NCCCCCCCC.Cl [SZ184, N-[(1S)-5-amino-1-(octylcarbamoyl)pentyl]octadecanamide hydrochloride] | a tendency toward increase was found | have an adjuvant activity | have an adjuvant activity | a tendency toward increase was found
3 | CCCCCCCCCCCCCCCCCC(=O)N[C@H](CCCNC(=N)N)C(=O)NCCCCCCCCCCCC.Cl [SZ191, N-[(1R)-1-(dodecylcarbamoyl)-4-guanidino-butyl]octadecanamide hydrochloride] | significant enhancement | have an adjuvant activity | have an adjuvant activity | significant enhancement
4 | CCCCCCCCCCCCCCCCCCCCCC(=O)N[C@@H](CC(C)C)C(=O)NCCCCCCCCCCCC [SZ197, N-[(1S)-1-(dodecylcarbamoyl)-3-methyl-butyl]docosanamide] | tended to increase | have an adjuvant activity | have an adjuvant activity | tended to increase
5 | CCCCCCCCCCCCNC(=O)[C@H](CCCNC(=N)N)N(CCCCCCC)CCCCCCC [SZ207, (2S)-2-(diheptylamino)-N-dodecyl-5-guanidino-pentanamide dihydrochloride] | tended to increase | have an adjuvant activity | have an adjuvant activity | tended to increase
6 | CCCCCCCCCCCCCCCCCC(=O)N[C@@H](CCCCNC(=N)N)C(=O)NCCCCCC.Cl [SZ206, N-[(1S)-1-(hexylcarbamoyl)-5-guanidino-pentyl]octadecanamide hydrochloride] | significant enhancement | have an adjuvant activity | have an adjuvant activity | significant enhancement
7 | CCCCCCCCCCCCCCCCCCCC(=O)N[C@@H](CCCNC(=N)N)C(=O)NCCCCCCCC.Cl [SZ183, N-[(1S)-4-guanidino-1-(octylcarbamoyl)butyl]icosanamide hydrochloride] | significant enhancement | have an adjuvant activity | have an adjuvant activity | significant enhancement
8 | CCCCCCCCCCCCCCCCCC(=O)N[C@@H](CCCCNC(=N)N)C(=O)NCCCCCCCCCCCC.Cl [SZ205, N-[(1S)-1-(dodecylcarbamoyl)-5-guanidino-pentyl]octadecanamide hydrochloride] | significant enhancement | have an adjuvant activity | have an adjuvant activity | significant enhancement
9 | CCCCCCCCCCCCCCCCCCCCCC(=O)NCCc1ccncc1.Cl [SZ209, N-[2-(4-pyridyl)ethyl]docosanamide hydrochloride] | tended to increase | have an adjuvant activity | have an adjuvant activity | tended to increase
10 | CCCCCCCCCCCCCCCCOC(=O)N[C@@H](CC(C)C)C(=O)NCCCCCCCC [SZ203, hexadecyl N-[(1S)-3-methyl-1-(octylcarbamoyl)butyl]carbamate] | Significant enhancement | have an adjuvant activity | have an adjuvant activity | tended to increase
11 | CCCCCCCCCCCCCCCCCCCCCC(=O)N[C@@H](CC(C)C)C(=O)NCCCCCCCC [SZ198, N-[(1S)-3-methyl-1-(octylcarbamoyl)butyl]docosanamide] | tended to increase | have an adjuvant activity | have an adjuvant activity | tended to increase
12 | CCCCCCCCCCCCCCCCCC(=O)NCC(C)(C)C(=O)NCCCCCCCCCCCC [SZ204, N-[3-(dodecylamino)-2,2-dimethyl-3-oxo-propyl]octadecanamide] | tended to increase | have an adjuvant activity | have an adjuvant activity | tended to increase
13 | CCCCCCCCCCCCCCCC(=O)N[C@H](CCCCN)C(=O)NCCCCCCCCCCCC.Cl [SZ194, N-[(1R)-5-amino-1-(dodecylcarbamoyl)pentyl]hexadecanamide hydrochloride] | Significant enhancement | have an adjuvant activity | have an adjuvant activity | tended to increase
14 | CCCCCCCCCCCCCCCCCC(=O)N[C@@H](CCCNC(=N)N)C(=O)NCCCCCCCC.Cl [SZ182, N-[(1S)-4-guanidino-1-(octylcarbamoyl)butyl]octadecanamide hydrochloride] | a tendency toward increase was found | have an adjuvant activity | have an adjuvant activity | a tendency toward increase was found
